Laboratory results from patent US20180346446A1, “IRE1 SMALL MOLECULE INHIBITORS” (QUENTIS THERAPEUTICS, INC., priority 2017, published 2018).

How the values were obtained:
IRE1a [1] = target: T1, IRE1a (Homo sapiens, UniProt O75460); assay: In vitro FRET assay (XBP1 RNA probe cleavage by IRE1a); assay type: biochemical; parameters: purchased SignalChem; details: 2 nM IRE1a protein
Method: In vitro FRET assay was performed to evaluate the ability of select compounds to inhibit IRE1, the results of which are summarized in Table 3. To perform the in vitro FRET assay, 1× complete assay buffer (CAB; […], 50 mM sodium citrate pH 7.15, ImM magnesium acetate, 0.02% tween 20) was used to dilute SignalChem IRE1a protein to a final concentration of 2 nM. Selected compounds were serially diluted with DMSO in a non-binding black 384-well plate for a total of 15 ul in each well. 2 ul of the serially diluted compound or DMSO control were then added to new wells containing 98 ul of 1×CAB, for a total volume of 100 ul, 10 ul of which were then transferred to wells of a new plate. 5 ul of the diluted IRE1a was then added to each well. 5 ul of a […] XBP1 RNA probe was then added to each well. Fluorescence was then read over 30 minutes in kinetic mode (485/515 nm).
Two RNA probes were used, XBP1 wildtype (SEQ ID NO: 2) which is able to be spliced by active IRE1a or XBP1 mutant (SEQ ID NO: 3) which is unable to be spliced. Each probe contained a 5′ 6-FAM modification and a 3′ IOWA Black FQ modification. […]

IRE1a [2] = target: T1, IRE1a; assay: IRE1a Endoribonuclease Nanoluciferase Assay (XBP1 luciferase reporter in 293T cells); assay type: cell-based; details: 293T cells transfected with XBP1 luciferase reporter, ER stressors +/- inhibitors
Method: Compounds disclosed herein were assessed for disruption of IRE1 signaling using a IRE1a Endoribonuclease Nanoluciferase Assay. Briefly, 2.5×10^6 293T cells were seeded in a 10 cm^2 tissue culture plate. About 24 hours later, the cells were transfected with Effectene. In a 15 mL Tube, the following was added: 2 ug XBP1 luciferase reporter plasmid (PGK-Luc2-P2A-XBP1u-Nanoluciferase-PEST); 300 ul EC buffer; and 16 ul Enhancer, followed by incubation at room temp for 5 minutes. Next, 60 ul Effectene (Qiagen 301427) was added, followed by incubation at room temperature for 10 minutes. 2.6 mL cDMEM media was added. Old media was aspirated from the cells, followed by addition of 7 mL fresh media. Full transfection mixture was added dropwise to cells. Cells were incubated for 6 hours, followed by trypsinization, centrifugation and resuspension in 11 mL media. 100 uL of cells were plated per a well in a 96 well plate. A day later, ER stressors of choice +/− inhibitors were added. To harvest, media was aspirated from cells completely, then 50 uL 1× passive lysis buffer (Promega: E1941) was added per well and put on shaker (300 rpm) for 30 minutes at room temperature. Cells were centrifuged, and 15 uL sample per well was added to a new, opaque white 384 well plate (Corning 3570). 15 uL OneGlo (nanoluciferase kit, Promega N1630) was added. Plates were spun down, placed on shaker (300 rpm) for 10 minutes. Plates were read on luminometer, 1000 ms integration time per well. 15 uL Stop and Glo (nanoluciferase kit) was added. Plates were spun down, placed on shaker (300 rpm) for 10 minutes. Plates were read on luminometer, 1000 ms second integration time per well. Recordings are provided below in Table 4.

T1 sequence (O75460 19-977): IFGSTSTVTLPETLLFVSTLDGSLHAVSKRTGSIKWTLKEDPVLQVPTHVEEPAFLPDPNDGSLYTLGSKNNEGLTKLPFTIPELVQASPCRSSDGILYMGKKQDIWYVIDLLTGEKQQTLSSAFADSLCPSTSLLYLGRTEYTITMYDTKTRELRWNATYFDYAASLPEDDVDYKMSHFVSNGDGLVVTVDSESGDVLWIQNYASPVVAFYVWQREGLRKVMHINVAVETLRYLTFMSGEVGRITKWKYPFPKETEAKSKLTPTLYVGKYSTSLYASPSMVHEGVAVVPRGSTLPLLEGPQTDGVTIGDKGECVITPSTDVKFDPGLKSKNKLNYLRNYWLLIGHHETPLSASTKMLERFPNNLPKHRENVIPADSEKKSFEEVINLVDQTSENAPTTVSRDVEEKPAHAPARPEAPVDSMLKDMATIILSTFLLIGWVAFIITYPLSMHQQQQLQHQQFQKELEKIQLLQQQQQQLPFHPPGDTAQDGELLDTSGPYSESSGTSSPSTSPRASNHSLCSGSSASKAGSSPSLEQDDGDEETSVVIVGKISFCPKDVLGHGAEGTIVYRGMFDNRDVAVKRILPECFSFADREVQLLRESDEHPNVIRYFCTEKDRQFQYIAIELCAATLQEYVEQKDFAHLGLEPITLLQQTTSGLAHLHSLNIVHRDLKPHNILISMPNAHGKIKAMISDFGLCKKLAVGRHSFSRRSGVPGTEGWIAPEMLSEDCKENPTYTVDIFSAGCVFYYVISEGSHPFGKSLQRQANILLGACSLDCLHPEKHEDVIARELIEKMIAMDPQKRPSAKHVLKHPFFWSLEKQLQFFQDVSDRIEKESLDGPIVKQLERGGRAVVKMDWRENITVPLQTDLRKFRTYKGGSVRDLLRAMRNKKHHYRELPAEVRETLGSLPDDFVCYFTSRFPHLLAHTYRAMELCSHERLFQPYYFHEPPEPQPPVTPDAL

Row | Compound | IC50 (IRE1a [1]) | EC50 (IRE1a [2])
1 | N[C@H]1CC[C@H](Nc2ncc3cc(-c4ccc(NS(=O)(=O)c5ccccc5Cl)cc4F)ccc3n2)CC1 [48; Formic Acid] | ≤ 5 nM | 5 to 50 nM
2 | CCc1cc(-c2cc(OC)c(NS(=O)(=O)c3ccccc3Cl)nn2)cc2cnc(N[C@H]3CC[C@H](N)CC3)nc12 [66; Formic Acid] | ≤ 5 nM | 50 to 100 nM
3 | CCc1cc(-c2ccc(NS(=O)(=O)c3ccccc3OC)cc2C)cc2cnc(N[C@H]3CC[C@H](N)CC3)nc12 [Compound 13] | > 100 nM | 
4 | Cc1cc(NS(=O)(=O)c2ccccc2Cl)ccc1-c1ccc2nc(N[C@H]3CC[C@H](N)CC3)ncc2c1 [Compound 2, N-(4-(2-(((1r,4r)-4-aminocyclohexyl)amino)quinazolin-6-yl)-3-methylphenyl)-2-chlorobenzenesulfonamide] | ≤ 5 nM | > 100 nM
5 | CCc1nc(NS(=O)(=O)c2ccccc2Cl)ccc1-c1cc(CC)c2nc(NC34CCC(N(C)C)(CC3)CC4)ncc2c1 [136; Formic Acid] | ≤ 5 nM | ≤ 5 nM
6 | Cc1cc2nc(N[C@H]3CC[C@H](N)CC3)ncc2cc1-c1ccc(NS(=O)(=O)c2ccccc2Cl)nc1C [106; Formic Acid] | ≤ 5 nM | 
7 | CCc1cc(-c2ncc(NS(=O)(=O)c3ccccc3Cl)nc2OC)cc2cnc(N[C@H]3CC[C@H](N)CC3)nc12 [98; Formic Acid] | ≤ 5 nM | ≤ 5 nM
8 | Cc1cc2nc(N[C@H]3CC[C@H](N)CC3)ncc2cc1-c1ccc(NS(=O)(=O)c2ccccc2Cl)c(F)c1 [90; Formic Acid] | ≤ 5 nM | 5 to 50 nM
9 | CCc1cc(-c2ccc(NS(=O)(=O)c3ccccc3Cl)nc2OC(F)(F)F)cc2cnc(N[C@H]3CC[C@H](N)CC3)nc12 [107; Formic Acid] | ≤ 5 nM | ≤ 5 nM
10 | COc1nc(NS(=O)(=O)c2ccccc2Cl)c(F)cc1-c1cc(C)c2nc(N[C@H]3CC[C@@H](N)CC3)ncc2c1 [146; Formic Acid] | ≤ 5 nM | 
11 | CCc1cc(-c2cc(CC)c3nc(N[C@H]4CC[C@H](N)CC4)ncc3c2)nnc1NS(=O)(=O)c1ccccc1Cl [100; Formic Acid] | ≤ 5 nM | 50 to 100 nM
12 | CCc1cc(-c2ccc(NS(=O)(=O)c3ccccc3)nc2C)cc2cnc(N[C@H]3CC[C@H](N)CC3)nc12 [111; Formic Acid] | ≤ 5 nM | 50 to 100 nM
13 | N[C@H]1CC[C@H](Nc2ncc3cc(-c4cnc(NS(=O)(=O)c5ccccc5Cl)c(F)c4)ccc3n2)CC1 [54; Formic Acid] | ≤ 5 nM | 5 to 50 nM
14 | N[C@H]1CC[C@H](Nc2ncc3cc(-c4ccc(NS(=O)(=O)c5ccccc5Cl)c(F)c4)ccc3n2)CC1 [50; Formic Acid] | ≤ 5 nM | 
15 | CCc1nc(NS(=O)(=O)c2ccccc2Cl)ccc1-c1cc2cnc(N[C@H]3CC[C@H](N)CC3)nc2cc1C [105; Formic Acid] | ≤ 5 nM | 
16 | CCc1cc(-c2cc(F)c(NS(=O)(=O)c3ccccc3Cl)cc2OC)cc2cnc(N[C@H]3CC[C@H](N)CC3)nc12 [42; Formic Acid] | ≤ 5 nM | 
17 | CCc1cc(-c2ccc(NS(=O)(=O)c3ccccc3OC(F)(F)F)cc2C)cc2cnc(N[C@H]3CC[C@H](N)CC3)nc12 [Compound 8, N-(4-(2-(((1r,4r)-4-aminocyclohexyl)amino)-8-ethylquinazolin-6-yl)-3-methylphenyl)-2-(trifluoromethoxy)benzenesulfonamide] | 5 to 50 nM | 
18 | COc1nc(NS(=O)(=O)c2ccccc2Cl)ccc1-c1ccc2nc(N[C@H]3CC[C@H](N)CC3)ncc2c1C [114; Formic Acid] | 5 to 50 nM | 
19 | N[C@H]1CC[C@H](Nc2cc3ccc(-c4ccc(NS(=O)(=O)c5ccccc5Cl)c(F)c4)cc3cn2)CC1 [57; Formic Acid] | ≤ 5 nM | ≤ 5 nM
20 | N[C@H]1CC[C@@H](Nc2ncc3cc(-c4ccc(NS(=O)(=O)c5ccccc5Cl)c(F)c4)ccc3n2)C1 [80; Formic Acid] | ≤ 5 nM | > 100 nM
21 | CCc1cc(-c2ccc(N(C)S(=O)(=O)c3ccccc3Cl)cc2C)cc2cnc(N[C@H]3CC[C@H](N)CC3)nc12 [31; Formic Acid] | > 100 nM | 
22 | CCc1cc(-c2cnc(NS(=O)(=O)c3ccccc3Cl)nc2)cc2cnc(N[C@H]3CC[C@H](N)CC3)nc12 [39; Formic Acid] | ≤ 5 nM | 

Row | Compound | IC50 (IRE1a [1]) | EC50 (IRE1a [2])
23 | CCc1cc(-c2sc(NS(=O)(=O)c3ccccc3Cl)nc2C)cc2cnc(N[C@H]3CC[C@H](N)CC3)nc12 [38; Formic Acid] | ≤ 5 nM | 
24 | CCc1cc(-c2ccc(NS(=O)(=O)c3ccccc3Cl)cc2Cl)cc2cnc(N[C@H]3CC[C@H](N)CC3)nc12 [17; Formic Acid] | > 100 nM | 
25 | CCc1cc(-c2ccc(NS(=O)(=O)c3ccccc3Cl)nc2OC)cc2cnc(N[C@H]3CC[C@H](O)CC3)nc12 [101; Formic Acid] | 5 to 50 nM | 
26 | CC(C)c1cc(-c2cc(NS(=O)(=O)c3ccccc3Cl)nn2C)cc2cnc(N[C@H]3CC[C@H](N)CC3)nc12 [40; Formic Acid] | ≤ 5 nM | 
27 | CCc1cc(-c2ccc(NS(=O)(=O)c3ccccc3)cc2C)cc2cnc(N[C@H]3CC[C@H](N)CC3)nc12 [15; Formic Acid] | > 100 nM | 
28 | CCc1cc(-c2cnc(NS(=O)(=O)c3ccccc3Cl)s2)cc2cnc(N[C@H]3CC[C@H](N)CC3)nc12 [41; Formic Acid] | ≤ 5 nM | 
29 | CCc1cc(-c2cc(F)c(NS(=O)(=O)c3ccccc3Cl)nc2OC)cc2cnc(N[C@H]3CC[C@@](C)(N(C)C)CC3)nc12 [144; Formic Acid] | 50 to 100 nM | 
30 | CCc1cc(-c2ccc(NS(=O)(=O)c3ccc(Cl)cc3)cc2C)cc2cnc(N[C@H]3CC[C@H](N)CC3)nc12 [Compound 12] | > 100 nM | 
31 | CCc1cc(-c2ccc(NS(=O)(=O)c3ccccc3C(F)(F)F)cc2C)cc2cnc(N[C@H]3CC[C@H](N)CC3)nc12 [Compound 7, N-(4-(2-(((1r,4r)-4-aminocyclohexyl)amino)-8-ethylquinazolin-6-yl)-3-methylphenyl)-2-(trifluoromethyl)benzenesulfonamide] | 5 to 50 nM | 
32 | CCc1cc(NS(=O)(=O)c2ccccc2Cl)nnc1-c1cc(CC)c2nc(N[C@H]3CC[C@H](N)CC3)ncc2c1 [96; Formic Acid] | ≤ 5 nM | 
33 | CCc1cc(-c2ccc(NS(=O)(=O)c3ccccc3Cl)nc2OC)cc2cnc(N[C@H]3CC[C@@H](N)CC3)nc12 [140; Formic Acid] | ≤ 5 nM | 
34 | CCc1cc(-c2cc(F)c(NS(=O)(=O)c3ccccc3Cl)c(F)c2)cc2cnc(N[C@H]3CC[C@H](N)CC3)nc12 [63; Formic Acid] | ≤ 5 nM | 
35 | CCc1cc(-c2ccc(NS(=O)(=O)c3ccccc3F)cc2C)cc2cnc(N[C@H]3CC[C@H](N)CC3)nc12 [Compound 10, N-(4-(2-(((1r,4r)-4-aminocyclohexyl)amino)-8-ethylquinazolin-6-yl)-3-methylphenyl)-2-fluorobenzenesulfonamide] | ≤ 5 nM | 
36 | COc1cc(-c2ccc(NS(=O)(=O)c3ccccc3Cl)cc2C)cc2cnc(N[C@H]3CC[C@H](N)CC3)nc12 [36; Formic Acid] | ≤ 5 nM | 
37 | CCc1cc(-c2ccc(NS(=O)(=O)c3ccccc3Cl)cc2C(F)(F)F)cc2cnc(N[C@H]3CC[C@H](N)CC3)nc12 [14; Formic Acid] | > 100 nM | 
38 | Cc1cc(N(C)S(=O)(=O)c2ccccc2Cl)ccc1-c1cc(O)c2nc(N[C@H]3CC[C@H](N)CC3)ncc2c1 [30; Formic Acid] | 50 to 100 nM | 
39 | CCc1cc(-c2ccc(NS(=O)(=O)c3ccccc3Cl)nc2OC)cc2cnc(NC3CCC(C)(N(C)C)CC3)nc12 (stereo not shown) [143; Formic Acid] | 5 to 50 nM | 
40 | COc1cc(-c2cc(NS(=O)(=O)c3ccccc3Cl)nn2C)cc2cnc(N[C@H]3CC[C@H](N)CC3)nc12 [45; Formic Acid] | 50 to 100 nM | 
41 | N[C@H]1CC[C@H](Nc2ncc3cc(-c4ccc(NS(=O)(=O)c5ccccc5Cl)nn4)ccc3n2)CC1 [49; Formic Acid] | ≤ 5 nM | 
42 | CCc1cc(-n2cc(NS(=O)(=O)c3ccccc3Cl)cn2)cc2cnc(N[C@H]3CC[C@H](N)CC3)nc12 [43; Formic Acid] | ≤ 5 nM | 
43 | CCc1cc(-c2ccc(NS(=O)(=O)c3cc(Cl)ccc3Cl)cc2C)cc2cnc(N[C@H]3CC[C@H](N)CC3)nc12 [Compound 9, N-(4-(2-(((1r,4r)-4-aminocyclohexyl)amino)-8-ethylquinazolin-6-yl)-3-methylphenyl)-2,5-dichlorobenzenesulfonamide] | ≤ 5 nM | 
